The record followed here is PubChem BioAssay (NCI).

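These data come from cells grown in 96-well plates and exposed to compound for 48 hours at five concentrations. The concentration for full growth arrest is given as TGI.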 Where a SMILES comes first, the peptide text is derived from it. [ ]: non-standard residue; d: D form. The star is where a group is joined. Cbz = O=C(OCc1ccccc1)*; Aib = CC(C)(N)C(=O)O; OBn = c1ccc(CO*)cc1 A value given as a limit tells only on which side of the number the result lay.

Common to all, as to test: DTP human tumour cell line panel, 48 h
For assay [1], the system named is OVCAR-3 ovarian.
Assay [2] deals with SK-OV-3 ovarian.
For assay [3], the system named is NCI-H23 lung.
In assay [4] the test system is BT-549 breast.
The test system of assay [5] is NCI-H226 lung.
The test system of assay [6] is SK-MEL-2 melanoma.
The subject of assay [7] is HOP-92 NSCLC.
For assay [8], the system named is HOP-62 NSCLC.
Assay [9] concerns PC-3 prostate.
Assay [10] deals with SF-539 CNS.

As for `[N-]=[N+]=CC(=O)OC(CCl)CCl`, the TGI in assay [1], in assay [2], in assay [3], in assay [4], in assay [5] and in assay [6] was over 100 µM throughout. Besides, the TGI in [7], in assay [8] and in [9] was over 100 µM throughout.
For the molecule `Cc1cc(OP2(=O)NCc3ncccc3O2)ccc1Cl` (stereo not drawn), the TGI in [1], in assay [3], in assay [4], in assay [5], in assay [6] and in [10] was over 100 µM throughout. The TGI in assay [7], in [8] and in [9] was over 100 µM each time.
`CSc1nc2c(c(N(C)C)n1)C(O)n1c(nc3ccccc31)S2` (stereo not drawn): the TGI in assay [1] was over 63.4 µM; in [2] it was 43.6 µM; in assay [3], over 100 µM; in assay [4] it was over 100 µM; in assay [5], over 100 µM; in [6], over 100 µM. Further, the TGI in assay [10] was 77.2 µM; in [7], over 74.5 µM; in assay [8], 69.1 µM; in [9] it was over 100 µM.
Regarding `c1ccc(C2=NOC(c3ccccc3)N2C23CC4CC(CC(C4)C2)C3)cc1` (stereo not drawn), the TGI in [1], in assay [2], in [3], in assay [4], in assay [5] and in [6] was over 10 µM throughout. Besides, the TGI in assay [10], in assay [7], in [8] and in assay [9] was over 10 µM in each case.
Take `Cc1c2c(c(C)n1-c1ccccc1)C(=O)N(CCN1CCN(c3cccc(C(F)(F)F)c3)CC1)C2=O`: the TGI in assay [1], in assay [2], in assay [3], in assay [4], in assay [5] and in assay [6] was over 100 µM each time. Also, the TGI in assay [10], in [7], in assay [8] and in assay [9] was over 100 µM in each case.
Regarding `Cc1ccnc(NC(=S)Nc2ccc([N+](=O)[O-])cc2)c1`, the TGI in [2] is over 100 µM; in [3] it was over 100 µM; in [4], over 100 µM; in [5], over 100 µM; in assay [6], over 100 µM; in [10], 85.4 µM. Besides, the TGI in assay [7], in [8] and in assay [9] was over 100 µM in each case.
As to `CCOC(=O)C(NC(=O)CC)(N1CCN(c2cc3c(cc2F)c(=O)c(C(=O)O)cn3C2CC2)CC1)C(F)(F)F` (stereo not drawn), the TGI in [1], in [2], in assay [3], in assay [4], in assay [5] and in [6] was over 100 µM in each case. In addition, the TGI in assay [10], in assay [7], in [8] and in assay [9] was over 100 µM in each case.
With `C=C(C)CNCCN`, the TGI in [1], in [3], in [4], in assay [5], in assay [6] and in [7] was over 100 µM throughout. Also, the TGI in assay [8] and in [9] was over 100 µM each time.
Consider `C[C@@H]1CCC2[C@@H](C)[C@@H](O[C@H]3O[C@@H]4O[C@@]5(C)CCC6[C@H](C)CCC([C@H]3C)[C@]64OO5)O[C@@H]3O[C@@]4(C)CCC1[C@@]23OO4` (stereo partly drawn), for which the concentration for total growth inhibition (TGI) in assay [1], in assay [2], in [3], in [4], in assay [5] and in [6] was over 25 µM each time. Besides, the TGI in [10], in assay [7], in [8] and in assay [9] was over 25 µM in each case.
Take `CC(NC(=O)C(C)(C)NC(=O)C(CC(=O)OCc1ccccc1)NC(=O)OCc1ccccc1)C(N)=O` (stereo not drawn) (Cbz-Asp(OBn)-[Aib]-Ala-NH2; configuration not given here): the TGI in [1], in [2], in [3], in [4], in assay [5] and in [6] was over 100 µM each time. The TGI in [10], in [7], in [8] and in [9] was over 100 µM throughout.
For `CC(C)(CO)CNc1nc(N)nc(Cl)c1/C=N/O`, the TGI in [1], in assay [3], in assay [4], in assay [5], in [6] and in assay [10] was over 100 µM throughout. Besides, the TGI in [7] is 84.7 µM; in assay [8], over 100 µM; in assay [9], over 100 µM.
On to `CN1CC[C@]2(c3cccc(O)c3)CC(=O)/C(=C/c3ccccc3)[C@@H]1C2`, for which the TGI in [1] was found to be 4.43 µM; in assay [3], 36.8 µM; in assay [4], 7.27 µM; in assay [5], 31.9 µM; in [6], 13 µM; in assay [10], 6.1 µM. The TGI in [7] came to 9.93 µM; in [8], 12.7 µM; in assay [9] it was 7.74 µM.
Consider `CC(C)Oc1cccc(N2C(=NCc3c[nH]c4ccccc34)Nc3ccncc3S2(=O)=O)c1`, for which the TGI in assay [1] is 56.1 µM; in assay [2], over 100 µM; in [3], over 100 µM; in assay [4], over 100 µM; in assay [5] it was over 100 µM; in assay [6] it was 51.3 µM. In addition, the TGI was over 100 µM in [10], 56.6 µM in assay [7], over 100 µM in assay [8] and 83.4 µM in assay [9].
